The text below walks through data of US20160244452A1, “HETEROCYCLIC COMPOUNDS AND USES THEREOF” (INFINITY PHARMACEUTICALS, INC., priority 2014, published 2016).

In one assay the target is T1, α PI3K (Homo sapiens, UniProt P42336).
T1 construct: purchased Millipore
Description: PI3-Kinase Promega ADP-Glo Max assay, α isoform. Conditions: 20 nM kinase, 3 mM ATP, 500 uM diC8-PtdInsP. Format: biochemical. As for the experimental part: (§1) PI3-Kinase Promega™ Assay
(§2) Promega ADP-Glo Max assay kit (Cat. No. V7002) was utilized to determine IC50 values for α, β, δ and γ isoforms of human Class I PI3 kinases (Millipore). Samples of kinase (20 nM α or δ, 40 nM β or γ isoform) were incubated with compound for 15 minutes at room temperature in reaction buffer (15 mM HEPES pH 7.4, 20 mM NaCl, 1 mM EGTA, 0.02% Tween 20, 10 mM MgCl2, 0.2 mg/mL bovine-γ-globulins) followed by addition of ATP/diC8-PtdInsP mixture to give final concentrations of 3 mM ATP and 500 uM diC8-PtdInsP. Reactions were incubated at room temperature for 2 hours followed by addition of 25 uL of stop solution. After a 40-minute incubation at room temperature, 50 uL of Promega detection mix was added followed by incubation for 1 hour at room temperature. Plates were then read on Envision plate reader in luminescence mode. Data was converted to % inhibition using the following equation below: […]
(§3) where S is the sample luminescence, Pos is a positive control without added PI3K, Neg is the negative control without added compound. Data was then plotted as % inhibition vs compound concentration. Data fit to 4 parameter logistic equation to determine IC50 values: […]
(§4) Certain compounds provided herein were tested in PI3-Kinase Promega Assay using procedures as described above to determine IC50 values for α, β, δ and/or γ isoforms.

The target in the next assay is T2, β PI3K (Homo sapiens, UniProt P42338).
T2 construct: purchased Millipore
T2 sequence (P42338 whole entry): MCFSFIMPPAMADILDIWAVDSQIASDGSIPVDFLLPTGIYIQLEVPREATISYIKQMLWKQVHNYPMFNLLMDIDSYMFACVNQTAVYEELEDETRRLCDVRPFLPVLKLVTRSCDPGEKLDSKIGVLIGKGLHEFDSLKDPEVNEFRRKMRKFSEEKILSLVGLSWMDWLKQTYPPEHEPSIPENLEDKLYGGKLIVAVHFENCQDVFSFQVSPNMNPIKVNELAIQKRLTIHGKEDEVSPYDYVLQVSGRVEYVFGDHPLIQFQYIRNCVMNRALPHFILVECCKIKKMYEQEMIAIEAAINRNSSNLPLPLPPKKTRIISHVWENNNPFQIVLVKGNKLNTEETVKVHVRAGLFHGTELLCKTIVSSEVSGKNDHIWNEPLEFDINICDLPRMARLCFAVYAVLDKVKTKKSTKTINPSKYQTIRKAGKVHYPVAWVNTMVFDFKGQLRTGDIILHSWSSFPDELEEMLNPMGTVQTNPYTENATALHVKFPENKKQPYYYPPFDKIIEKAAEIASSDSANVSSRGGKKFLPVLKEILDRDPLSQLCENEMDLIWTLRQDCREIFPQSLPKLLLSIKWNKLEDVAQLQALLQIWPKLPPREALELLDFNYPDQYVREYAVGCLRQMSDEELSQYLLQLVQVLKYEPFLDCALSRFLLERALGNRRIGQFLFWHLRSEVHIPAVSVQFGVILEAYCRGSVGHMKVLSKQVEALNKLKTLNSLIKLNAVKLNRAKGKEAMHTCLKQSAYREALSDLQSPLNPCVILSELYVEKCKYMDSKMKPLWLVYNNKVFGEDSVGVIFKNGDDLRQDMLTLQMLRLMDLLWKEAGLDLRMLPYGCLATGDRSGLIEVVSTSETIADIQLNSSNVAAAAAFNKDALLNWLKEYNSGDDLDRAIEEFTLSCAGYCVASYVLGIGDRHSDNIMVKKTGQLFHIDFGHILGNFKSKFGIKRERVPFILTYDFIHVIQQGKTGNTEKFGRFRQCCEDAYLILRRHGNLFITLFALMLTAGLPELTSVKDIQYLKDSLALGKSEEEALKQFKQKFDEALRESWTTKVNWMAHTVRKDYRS
T2 sequence (P27986 whole entry partner): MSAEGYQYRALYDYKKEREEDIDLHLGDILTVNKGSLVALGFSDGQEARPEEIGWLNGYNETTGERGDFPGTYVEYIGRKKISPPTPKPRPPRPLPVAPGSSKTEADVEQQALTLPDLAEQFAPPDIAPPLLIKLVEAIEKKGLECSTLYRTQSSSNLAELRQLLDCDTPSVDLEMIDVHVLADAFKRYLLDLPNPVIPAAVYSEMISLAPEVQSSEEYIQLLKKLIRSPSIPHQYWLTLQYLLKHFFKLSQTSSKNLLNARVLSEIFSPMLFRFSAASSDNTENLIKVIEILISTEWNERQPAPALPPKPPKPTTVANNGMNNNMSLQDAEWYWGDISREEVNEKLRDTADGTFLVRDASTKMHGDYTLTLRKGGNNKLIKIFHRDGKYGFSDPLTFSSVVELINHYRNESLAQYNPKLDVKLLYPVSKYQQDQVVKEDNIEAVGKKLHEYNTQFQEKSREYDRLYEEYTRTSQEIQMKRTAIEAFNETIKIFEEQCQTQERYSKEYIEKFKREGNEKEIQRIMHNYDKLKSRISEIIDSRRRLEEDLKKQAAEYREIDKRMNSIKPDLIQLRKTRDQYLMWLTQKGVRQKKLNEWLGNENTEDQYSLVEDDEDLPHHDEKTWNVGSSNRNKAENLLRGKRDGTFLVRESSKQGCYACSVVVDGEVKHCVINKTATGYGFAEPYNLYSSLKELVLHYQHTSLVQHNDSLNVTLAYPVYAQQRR
Description: PI3-Kinase Promega ADP-Glo Max assay, β isoform. Format: biochemical. The conditions noted are these: 40 nM kinase, 3 mM ATP, 500 uM diC8-PtdInsP. On the procedure: as §1, §2, §3, §4
On the technique in general: ADP-Glo turns the ADP formed in a reaction into a luminescent signal.

The next assay deals with T3, δ PI3K (Homo sapiens, UniProt O00329).
T3 construct: purchased Millipore
T3 sequence (O00329 whole entry): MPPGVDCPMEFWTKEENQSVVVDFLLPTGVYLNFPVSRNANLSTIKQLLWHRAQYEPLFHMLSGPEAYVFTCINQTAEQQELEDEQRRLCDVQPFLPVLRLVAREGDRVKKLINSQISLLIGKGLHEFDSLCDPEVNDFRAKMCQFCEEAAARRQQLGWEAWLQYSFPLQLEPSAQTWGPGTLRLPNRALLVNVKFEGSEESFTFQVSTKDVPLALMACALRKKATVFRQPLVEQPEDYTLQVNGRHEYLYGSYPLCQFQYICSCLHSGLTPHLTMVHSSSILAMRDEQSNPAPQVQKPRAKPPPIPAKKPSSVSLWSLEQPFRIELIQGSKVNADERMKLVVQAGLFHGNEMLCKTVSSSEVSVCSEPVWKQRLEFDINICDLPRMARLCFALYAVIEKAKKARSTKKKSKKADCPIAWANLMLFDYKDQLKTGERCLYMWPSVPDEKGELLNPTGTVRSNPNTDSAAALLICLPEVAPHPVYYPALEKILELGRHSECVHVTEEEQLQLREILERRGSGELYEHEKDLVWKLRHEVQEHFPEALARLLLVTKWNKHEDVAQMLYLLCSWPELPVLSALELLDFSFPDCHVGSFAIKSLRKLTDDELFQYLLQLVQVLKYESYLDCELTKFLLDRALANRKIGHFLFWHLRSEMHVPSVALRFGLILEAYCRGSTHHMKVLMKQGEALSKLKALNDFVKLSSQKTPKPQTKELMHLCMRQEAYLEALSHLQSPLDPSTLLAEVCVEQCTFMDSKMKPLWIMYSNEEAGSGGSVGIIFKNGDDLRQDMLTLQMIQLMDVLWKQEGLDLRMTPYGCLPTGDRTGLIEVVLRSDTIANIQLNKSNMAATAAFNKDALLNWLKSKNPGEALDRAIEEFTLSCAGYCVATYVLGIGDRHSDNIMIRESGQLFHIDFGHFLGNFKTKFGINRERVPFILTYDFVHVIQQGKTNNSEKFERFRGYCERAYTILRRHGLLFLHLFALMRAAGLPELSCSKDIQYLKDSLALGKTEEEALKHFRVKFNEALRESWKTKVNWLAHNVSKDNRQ
T3 sequence (P27986 whole entry partner): as the sequence (P27986 whole entry partner) above
Description: PI3-Kinase Promega ADP-Glo Max assay, δ isoform. The conditions noted are these: 20 nM kinase, 3 mM ATP, 500 uM diC8-PtdInsP. It is filed as biochemical. As for the experimental part: as §1, §2, §3, §4

The target of the next assay is T4, γ PI3K (Homo sapiens, UniProt P48736).
T4 construct: purchased Millipore
Description: PI3-Kinase Promega ADP-Glo Max assay, γ isoform. It is filed as biochemical. Conditions: 40 nM kinase, 3 mM ATP, 500 uM diC8-PtdInsP. On the procedure: as §1, §2, §3, §4

A further assay has as its target T5, p110 δ (Homo sapiens, UniProt O00329).
T5 construct: endogenous in cells; host or cells: RAJI cells
The assay is described as follows: PI3K-δ selective cellular assay: phospho-AKT in anti-human IgM stimulated RAJI cells. It is filed as cell-based. Conditions: serum-starved RAJI cells stimulated with anti-human IgM. From the text:
(a) PI3K-δ Selective Assay
A compound's ability in selectively inhibiting PI3K-δ can be assessed using RAJI cells, i.e., B lymphocyte cells derived from lymphoma patients. Briefly, serum-starved RAJI cells are stimulated with anti-human IgM, thereby causing signaling through the B-cell receptors, as described in, for example, He et al., Leukemia Research (2009) 33: 798-802. B-cell receptor signaling is important for the activation, differentiation, and survival of B cells and certain B-cell derived cancers. Reduction of phospho-AKT is indicative of compounds that can inhibit B-cell proliferation and function in certain diseases. By monitoring the reduction of phospho-AKT in stimulated RAJI cells (using for example, phospho-AKT antibodies), a compound's potential efficacy in selectively inhibiting PI3Kδ can be assessed.
Certain compounds provided herein were tested in RAJI cell model using procedures as described above.

In another assay the target is T6, p110 γ (Mus musculus, UniProt Q9JHG7).
T6 construct: endogenous in cells; host or cells: RAW264.7 macrophages
Description: PI3K-γ selective cellular assay: phospho-AKT in C5a stimulated RAW264.7 macrophages. It is filed as cell-based. The conditions noted are these: serum-starved RAW264.7 cells stimulated with C5a. An excerpt: (b) PI3K-γ Selective Assay
A compound's ability in selectively inhibiting PI3K-γ can be assessed using RAW264.7 macrophages. Briefly, serum-starved RAW264.7 cells are stimulated with a known GPCR agonist C5a. See, e.g., Camps et al., Nature Medicine (2005) 11(9):936-943. Cells can be treated with test compounds prior to, simultaneously with, or subsequent to the stimulation by C5a. RAW 264.7 cells respond to the complement component fragment C5a through activation of the C5a receptor, and the C5a receptor activates macrophages and induces cell migration. Test compounds' ability to inhibit C5a-mediated AKT phosphorylation is indicative of selective inhibition of PI3K-γ. Thus, by monitoring the reduction of phospho-AKT in stimulated RAW 264.7 cells (using for example, phospho-AKT antibodies), a compound's potential efficacy in selectively inhibiting PI3Kγ can be assessed.
Certain compounds provided herein were tested in RAW 264.7 cell model using procedures as described above.

The subject of another assay is BTK or MEK pathway. The assay is described as follows: Effect on BTK or MEK pathway.

T1 sequence (P42336 whole entry): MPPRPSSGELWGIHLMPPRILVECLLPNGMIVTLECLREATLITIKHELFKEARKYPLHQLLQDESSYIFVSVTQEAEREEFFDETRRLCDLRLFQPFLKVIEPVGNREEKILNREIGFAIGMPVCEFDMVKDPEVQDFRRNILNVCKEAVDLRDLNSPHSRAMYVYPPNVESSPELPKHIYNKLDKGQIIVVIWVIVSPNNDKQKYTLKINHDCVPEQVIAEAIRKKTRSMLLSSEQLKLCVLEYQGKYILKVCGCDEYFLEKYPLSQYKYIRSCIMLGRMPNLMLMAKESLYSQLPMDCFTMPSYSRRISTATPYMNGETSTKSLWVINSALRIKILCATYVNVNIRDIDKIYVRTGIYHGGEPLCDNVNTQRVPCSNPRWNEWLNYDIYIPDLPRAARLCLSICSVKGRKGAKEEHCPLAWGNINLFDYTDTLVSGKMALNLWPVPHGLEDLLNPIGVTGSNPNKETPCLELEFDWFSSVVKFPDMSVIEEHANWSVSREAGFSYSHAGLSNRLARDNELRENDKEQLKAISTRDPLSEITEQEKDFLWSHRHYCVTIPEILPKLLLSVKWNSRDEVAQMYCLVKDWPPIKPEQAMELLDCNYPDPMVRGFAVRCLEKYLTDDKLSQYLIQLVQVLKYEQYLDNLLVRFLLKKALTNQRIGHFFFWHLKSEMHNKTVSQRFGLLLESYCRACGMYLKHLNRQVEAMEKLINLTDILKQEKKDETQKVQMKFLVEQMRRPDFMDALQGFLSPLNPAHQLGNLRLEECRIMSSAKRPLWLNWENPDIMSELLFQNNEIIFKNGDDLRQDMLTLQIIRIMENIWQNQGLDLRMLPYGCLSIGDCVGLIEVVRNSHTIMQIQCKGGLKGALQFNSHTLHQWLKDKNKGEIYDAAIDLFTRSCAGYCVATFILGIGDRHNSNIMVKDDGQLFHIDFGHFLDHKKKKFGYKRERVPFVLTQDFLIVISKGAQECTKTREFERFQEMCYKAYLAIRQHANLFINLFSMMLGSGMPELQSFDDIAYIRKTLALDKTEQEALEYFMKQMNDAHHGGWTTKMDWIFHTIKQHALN
T1 sequence (P27986 whole entry partner): as the sequence (P27986 whole entry partner) above
T5 sequence (O00329 whole entry): as the sequence (O00329 whole entry) above
T5 sequence (P27986 whole entry partner): as the sequence (P27986 whole entry partner) above

As a reminder, the IC50 is the midpoint of a concentration-inhibition curve. A higher IC50 goes with lower potency. For the compound `CC[C@H](Nc1ncnc2[nH]cnc12)c1cc2cccc(F)c2c(=O)n1-c1ccccc1` [1 s], the IC50 against α PI3K is 3500 to 10000 nM; against β PI3K it was 100 to 3500 nM; against δ PI3K it was 10 to 100 nM; against γ PI3K, 100 to 3500 nM; at p110 δ it was 1 to 10 nM; at p110 γ, 100 to 3500 nM.

As for `C[C@H](Nc1ncnc2[nH]cnc12)c1cc2ccc(F)c(Cl)c2c(=O)n1-c1ccccc1` [96 s], the IC50 against α PI3K was 100 to 3500 nM; against β PI3K it was 100 to 3500 nM; on δ PI3K it was 1 to 10 nM; at γ PI3K it was 100 to 3500 nM; on p110 δ it was 1 to 10 nM; at p110 γ, 10 to 100 nM.

In the case of `CCC(Nc1ncnc2[nH]cnc12)c1cc2cccc(F)c2c(=O)n1-c1ccccc1` (stereo not shown) [Compound 1], in the assay on BTK or MEK pathway, the “Effect on BTK or MEK pathway” value is on record as “does not affect BTK or MEK pathway”.
